Usually EC50 stands for the concentration needed to bring the measured effect to its halfway point. One may read the Ki as a measure of affinity in units of concentration, obtained from inhibition or displacement. Low readings indicate a stronger hold on the target, high ones a looser hold on the target.

Test [1] relates to HCV replicons (Huh-7 luc/neo cells, NS3-NS5B regions of HCV type 1b). Put plainly: Replicon assay: inhibition of HCV RNA replication in Huh-Luc cells (luciferase read-out). In kind it is cell-based. As to conditions: Hepatitis C virus, Huh-7, 72 h, HCV type 1b replicon, luciferase activity after three days. On the procedure:
The in vitro antiviral activity against HCV of the compounds of formula (I) was tested in a cellular HCV replicon system based on Lohmann et al. (1999) Science 285:110-113, with the further modifications described by Krieger et al. (2001) Journal of Virology 75: 4614-4624 (incorporated herein by reference), which is further exemplified in the examples section. This model, while not a complete infection model for HCV, is widely accepted as the most robust and efficient model of autonomous HCV RNA replication currently available. […] It will be appreciated that it is important to distinguish between compounds that specifically interfere with HCV functions from those that exert cytotoxic or cytostatic effects in the HCV replicon model, and as a consequence cause a decrease in HCV RNA or linked reporter enzyme concentration. Assays are known in the field for the evaluation of cellular cytotoxicity based for example on the activity of mitochondrial enzymes using fluorogenic redox dyes such as resazurin. Furthermore, cellular counter screens exist for the evaluation of non-selective inhibition of linked reporter gene activity, such as firefly luciferase. Appropriate cell types can be equipped by stable transfection with a luciferase reporter gene whose expression is dependent on a constitutively active gene promoter, and such cells can be used as a counter-screen to eliminate non-selective inhibitors.
The compounds of formula (I) were examined for activity in the inhibition of HCV RNA replication in a cellular assay. […] The cellular assay was based on a bicistronic expression construct, as described by Lohmann et al. (1999) Science vol. 285 pp. 110-113 with modifications described by Krieger et al. (2001) Journal of Virology 75: 4614-4624, in a multi-target screening strategy. In essence, the method was as follows.
The assay utilized the stably transfected cell line Huh-7 luc/neo (hereafter referred to as Huh-Luc). This cell line harbors an RNA encoding a bicistronic expression construct comprising the wild type NS3-NS5B regions of HCV type 1b translated from an Internal Ribosome Entry Site (IRES) from encephalomyocarditis virus (EMCV), preceded by a reporter portion (FfL-luciferase), and a selectable marker portion (neo^R, neomycine phosphotransferase). The construct is bordered by 5′ and 3′ NTRs (non-translated regions) from HCV type 1b. Continued culture of the replicon cells in the presence of G418 (neo^R) is dependent on the replication of the HCV RNA. The stably transfected replicon cells that express HCV RNA, which replicates autonomously and to high levels, encoding inter alia luciferase, are used for screening the antiviral compounds.
The replicon cells were plated in 384 well plates in the presence of the test and control compounds which were added in various concentrations. Following an incubation of three days, HCV replication was measured by assaying luciferase activity (using standard luciferase assay substrates and reagents and a Perkin Elmer ViewLux™ ultraHTS microplate imager). Replicon cells in the control cultures have high luciferase expression in the absence of any inhibitor. The inhibitory activity of the compound on luciferase activity was monitored on the Huh-Luc cells, enabling a dose-response curve for each test compound. EC50 values were then calculated, which value represents the amount of the compound required to decrease by 50% the level of detected luciferase activity, or more specifically, the ability of the genetically linked HCV replicon RNA to replicate.
On the technique in general: In antiviral work, replicon cells carry a viral genome segment that copies itself.

The target of test [2] is full-length hepatitis C NS3 protease enzyme (HCV NS3/4A protease complexes) (Hepatitis C virus genotype 1a, UniProt P27958). Put plainly: Inhibition assay (enzymatic assay) of HCV NS3/4A protease. As to conditions: enzyme 1 nM, 25 μM NS4A cofactor, 0.5 μM depsipeptide substrate, 30° C., competitive model. In kind it is biochemical. Here is the method:
The aim of this in vitro assay is to measure the inhibition of HCV NS3/4A protease complexes by the compounds of the present invention. This assay provides an indication of how effective compounds of the present invention would be in inhibiting HCV NS3/4A proteolytic activity.
The inhibition of full-length hepatitis C NS3 protease enzyme was measured essentially as described in Poliakov, 2002 Prot Expression & Purification 25 363 371. Briefly, the hydrolysis of a depsipeptide substrate, Ac-DED(Edans)EEAbuψ[COO]ASK(Dabcyl)-NH2 (AnaSpec, San José, USA), was measured spectrofluorometrically in the presence of a peptide cofactor, KKGSVVIVGRIVLSGK (Åke Engström, Department of Medical Biochemistry and Microbiology, Uppsala University, Sweden). [Landro, 1997 #Biochem 36 9340-9348]. The enzyme (1 nM) was incubated in 50 mM HEPES, pH 7.5, 10 mM DTT, 40% glycerol, 0.1% n-octyl-D-glucoside, with 25 μM NS4A cofactor and inhibitor at 30° C. for 10 min, whereupon the reaction was initiated by addition of 0.5 μM substrate. Inhibitors were dissolved in DMSO, sonicated for 30 sec. and vortexed. The solutions were stored at −20° C. between measurements.
The final concentration of DMSO in the assay sample was adjusted to 3.3%. The rate of hydrolysis was corrected for inner filter effects according to published procedures. [Liu, 1999 Analytical Biochemistry 267 331-335]. Ki values were estimated by non-linear regression analysis (GraFit, Erithacus Software, Staines, MX, UK), using a model for competitive inhibition and a fixed value for Km (0.15 μM). A minimum of two replicates was performed for all measurements.

Sequence of full-length hepatitis C NS3 protease enzyme (HCV NS3/4A protease complexes) (P27958 1027-1657, one chain of several): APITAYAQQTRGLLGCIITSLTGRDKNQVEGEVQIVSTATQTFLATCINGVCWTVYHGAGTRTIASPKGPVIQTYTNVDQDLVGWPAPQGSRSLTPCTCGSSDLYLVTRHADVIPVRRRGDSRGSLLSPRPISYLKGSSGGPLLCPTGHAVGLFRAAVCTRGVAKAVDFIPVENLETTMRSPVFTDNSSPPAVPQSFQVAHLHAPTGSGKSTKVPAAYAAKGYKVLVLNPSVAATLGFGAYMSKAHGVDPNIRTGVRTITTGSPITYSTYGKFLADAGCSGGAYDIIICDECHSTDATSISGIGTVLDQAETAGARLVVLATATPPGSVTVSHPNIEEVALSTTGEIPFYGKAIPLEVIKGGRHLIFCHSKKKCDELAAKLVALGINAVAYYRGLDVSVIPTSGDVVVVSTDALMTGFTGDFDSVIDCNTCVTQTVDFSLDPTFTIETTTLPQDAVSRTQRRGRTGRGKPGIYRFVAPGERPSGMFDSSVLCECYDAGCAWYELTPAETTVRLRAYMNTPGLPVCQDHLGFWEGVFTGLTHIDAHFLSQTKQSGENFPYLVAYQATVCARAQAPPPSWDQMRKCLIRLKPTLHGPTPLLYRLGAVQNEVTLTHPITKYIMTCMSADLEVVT

`COc1ccc2c(O[C@@H]3C[C@H]4C(=O)N[C@]5(C(=O)NS(=O)(=O)C6CC6)C[C@H]5/C=C\CCCCN(C)C(=O)[C@@H]4C3)nc(-c3ccccc3)nc2c1` [Compound 21, Cyclopropanesulfonic acid [17-(7-methoxy-2-phenyl-quinazolin-4-yloxy)-13-methyl-2,14-dioxo-3,13-diaza-tricyclo[13.3.0.0*4,6*]octadec-7-ene-4-carbonyl]-amide]: the EC50 in test [1] was in the range of 0.5 to 199 nM. In addition, the inhibition constant (Ki) in test [2] was 0.1 to 4.9 nM.
`CN1CCCC/C=C\[C@@H]2C[C@@]2(C(=O)NS(=O)(=O)C2CC2)NC(=O)[C@@H]2C[C@@H](Oc3nc(-c4ccccc4)nc4ccccc34)C[C@H]2C1=O` [Compound 31, Cyclopropanesulfonic acid [13-methyl-2,14-dioxo-17-(2-phenylquinazolin-4-yl-oxy)3,13-diaza-tricyclo[13.3.0.0*4,6*]octadec-7-ene-4-carbonyl]amide]: the EC50 in test [1] lay within 0.5 to 199 nM. Moreover, in test [2], the inhibitory constant (Ki) is 0.1 to 4.9 nM.
For `CN1CCN(c2nc(O[C@@H]3C[C@H]4C(=O)N[C@]5(C(=O)NS(=O)(=O)C6CC6)C[C@H]5/C=C\CCCCN(C)C(=O)[C@@H]4C3)c3ccccc3n2)CC1` [Compound 34, Cyclopropanesulfonic acid {13-methyl-17-[2-(4-methyl-piperazin-1-yl)quinazolin-4-yloxy]-2,14-dioxo-3,13-diaza-tricyclo[13.3.0.0*4,6*]octadec-7-ene4-carbonyl}-amide] the same measures were 200 to 990 nM and 5 to 99.9 nM.
As to `CN1CCCC/C=C\[C@@H]2C[C@@]2(C(=O)NS(=O)(=O)C2CC2)NC(=O)[C@@H]2C[C@@H](Oc3nc(N4CCOCC4)nc4ccccc34)C[C@H]2C1=O` [Compound 36, Cyclopropanesulfonic acid [13-methyl-17-(2-morpholin-4-yl-quinazolin-4-yloxy)-2,14-dioxo-3,13-diaza-tricyclo[13.3.0.0*4,6*]octadec-7-ene-4-carbonyl]-amide], in test [1], the EC50 is 200 to 990 nM. This compound had an inhibition constant Ki in test [2] of 5 to 99.9 nM.
In the case of `CC(C)c1csc(-c2nc(O[C@@H]3C[C@H]4C(=O)N[C@]5(C(=O)NS(=O)(=O)C6CC6)C[C@H]5/C=C\CCCCN(C)C(=O)[C@@H]4C3)c3ccccc3n2)n1` [Compound 44, Cyclopropanesulfonic acid {17-[2-(4-isopropyl-thiazol-2-yl)-quinazolin-4-yloxy-]-13-methyl-2,14-dioxo-3,13-diaza-tricyclo[13.3.0.0*4,6*]octadec-7-ene-4-carbonyl}-amide], the EC50 in test [1] lay in the range of 0.5 to 199 nM. In test [2], this compound had an inhibition constant (Ki) of 0.1 to 4.9 nM.
`COc1ccc2c(O[C@@H]3C[C@H]4C(=O)N[C@]5(C(=O)NS(=O)(=O)C6CC6)C[C@H]5/C=C\CCCCN(C)C(=O)[C@@H]4C3)nc(-c3nc(C(C)C)cs3)nc2c1` [Compound 45, Cyclopropanesulfonic acid {17-[2-(4-isopropyl-thiazol-2-yl)-7-methoxy-quinazolin-4-yloxy]-13-methyl-2,14-dioxo-3,13-diaza-tricyclo[13.3.0.0*4,6*]octadec-7-ene-4-carbonyl}-amide]: the EC50 in test [1] was 0.5 to 199 nM. In addition, in test [2], the inhibition constant (Ki) was in the range of 0.1 to 4.9 nM.
For `COc1ccc2c(O[C@@H]3C[C@H]4C(=O)N[C@]5(C(=O)NS(=O)(=O)C6CC6)C[C@H]5/C=C\CCCCN(C)C(=O)N4C3)nc(-c3ccccc3)nc2c1` [Compound 53, Cyclopropanesulfonic acid [17-(7-methoxy-2-phenyl-quinazolin-4-yloxy)-13-methyl-2,14-dioxo-3,13,15-triaza-tricyclo[13.3.0.0*4,6*]octadec-7-ene-4-carbonyl]-amide] the same measures were 0.5 to 199 nM and 0.1 to 4.9 nM.
Taken in the same sequence, the figures for `CC(C)Nc1nc(O[C@@H]2C[C@H]3C(=O)N[C@]4(C(=O)NS(=O)(=O)C5CC5)C[C@H]4/C=C\CCCCN(C)C(=O)[C@@H]3C2)c2ccccc2n1` [Compound 71, Cyclopropanesulfonic acid [17-(2-isopropylamino-quinazolin-4-yloxy)-13-methyl-2,14-dioxo-3,13-diaza-tricyclo[13.3.0.0*4,6*]octadec-7-ene-4-carbonyl]-amide] were 200 to 990 nM and 0.1 to 4.9 nM.
For `CN1CCCC/C=C\[C@@H]2C[C@@]2(C(=O)NS(=O)(=O)C2CC2)NC(=O)[C@@H]2C[C@@H](Oc3nc(N4CCCC4)nc4ccccc34)C[C@H]2C1=O` [Compound 72, Cyclopropanesulfonic acid [13-methyl-2,14-dioxo-17-[2-pyrrolidin-1-yl)-quinazolin-4-yloxy]-3,13-diaza-tricyclo[13.3.0.0*4,6*]octadec-7-ene-4-carbonyl]-amide] the same measures were 200 to 990 nM and 0.1 to 4.9 nM.
For `CN1CCCC/C=C\[C@@H]2C[C@@]2(C(=O)NS(=O)(=O)C2CC2)NC(=O)[C@@H]2C[C@@H](Oc3nc(-c4ccc(C#N)cc4)nc4ccccc34)C[C@H]2C1=O` [Compound 73, Cyclopropanesulfonic acid {17-[2-(4-cyano-phenyl)-quinazolin-4-yloxy]-13-methyl-2,14-dioxo-3,13-diaza-tricyclo[13.3.0.0*4,6*]octadec-7-ene-4-carbonyl}-amide], the EC50 in test [1] was more than 10000 nM. Besides, the inhibitory constant (Ki) in test [2] was 100 to 1000 nM.
As to `COc1ccc2c(O[C@@H]3C[C@H]4C(=O)N[C@]5(C(=O)NS(=O)(=O)C6CC6)C[C@H]5/C=C\CCCCN(C)C(=O)[C@@H]4C3)nc(-c3ccccc3)nc2c1C` [Compound 89, Cyclopropanesulfonic acid [17-(7-methoxy-8-methyl-2-phenyl-quinazolin-4-yloxy)-13-methyl-2,14-dioxo-3,13-diaza-tricyclo[13.3.0.0*4,6*]octadec-7-ene-4-carbnyl]-amide], the EC50 in test [1] fell in the range of 0.5 to 199 nM. The same compound returned a Ki in test [2] of 0.1 to 4.9 nM.
Taken in the same sequence, the figures for `COc1ccc2c(O[C@@H]3C[C@H]4C(=O)N[C@]5(C(=O)NS(=O)(=O)C6CC6)C[C@H]5/C=C\CCCCN(C)C(=O)N4C3)nc(-c3ccccc3)nc2c1C` [Compound 94, Cyclopropanesulfonic acid [17-(7-methoxy-8-methyl-2-phenyl-quinazolin-4-yloxy)-13-methyl-2,14-dioxo-3,13,15-triaza-tricyclo[13.3.0.0*4,6*]octadec-7-ene-4-carbonyl]-amide] were 0.5 to 199 nM and 0.1 to 4.9 nM.
For `COc1ccc2c(O[C@@H]3C[C@H]4C(=O)NC5(C(=O)NS(=O)(=O)C6CC6)C[C@H]5/C=C\CCCCN(C)C(=O)N4C3)nc(-c3ccc(F)cc3)nc2c1C` (some centres unmarked) [Compound 98, Cyclopropanesulfonic acid {17-[2-(4-fluoro-phenyl-(7-methoxy-8-methyl-quinazolin-4-yloxy)-13-methyl-2,14-dioxo-3,13,15-triaza-tricyclo[13.3.0.0*4,6*]octadec-7-ene-4-carbonyl}-amide] the same measures were 0.5 to 199 nM and 0.1 to 4.9 nM.

Values taken from patent US7659245B2, “Macrocylic inhibitors of hepatitis C virus” (Tibotec Pharmaceuticals Ltd, priority 2005, dated 2010).
